Test results as given in patent US20060258647A1, “Treatment of maladaptive substance use with cholecystokinin (CCK) antagonists” (The Regents of the University of California, priority 2005, published 2006).
“Also recorded” adds a separate entry of the source.

How the values were obtained:
[1] = Jackson et al., 1994; cited from earlier work
Rats = assay: Ethanol consumption / reinstatement with foot shock; assay type: in vivo, rat
Protocol: Rats (n=18) were administered 3 daily doses of systemic L-365 (1 mg/kg) prior to a one-hour ethanol (10%) access session. On the second day of L-365, 260 administration, animals were administered 0.8 mA of shock (0.5 seconds every 40 seconds for a period of 15 minutes) in ethanol access chambers directly prior to the onset of their one-hour access session. […] This was a randomized cross over design with each animal serving as its own control.
L-365, 260 had no effect on ethanol consumption when shock was administered during extinction (n=12). Animals were administered 3 daily doses of systemic L-365, 260 after ethanol consumption was extinguished. On the second day of L-365, 260 administration, animals were administered 0.8 mA of shock (0.5 seconds every 40 seconds for a period of 15 minutes) in the ethanol access chambers directly prior to the onset of their one-hour extinction session. This was a randomized cross over design with each animal serving as its own control.
L-365 had no effect on ethanol reinstatement when shock was administered on the first day of re-initiation of ethanol access (n=12). Animals were administered 3 daily doses of systemic L-365, 260 after ethanol consumption was extinguished. On the first day of L-365, 260 administration, animals were administered 0.8 mA of shock (0.5 seconds every 40 seconds for a period of 15 minutes) in the ethanol access chambers directly prior to the onset of their one-hour reinstatement session. This was a randomized cross over design with each animal serving as its own control.

Sprague-Dawley rats [2] = assay: Expression of morphine conditioned place preference (CPP) after systemic administration; assay type: in vivo, rat; settings: 1 mg/kg systemic (i.p.)
Protocol: (§1) 68 male Sprague-Dawley rats (Charles River, Wilmington, Mass.) weighing 275-300 grams at the onset of the study were individually housed in a temperature controlled environment (70° F.) and kept on a 12 hour light/dark cycle. Rat chow and water were available ad libitum. Animals were tested at the same time during their light cycle each day. All experimental protocols were approved by the Institutional Animal Care and Use Committee and were conducted in accordance with the Guide for the Care and Use of Laboratory Animals (N1H). 22 rats were used for systemic injections and the remaining rats were cannulated for NAcc microinjections.
Animals were trained in 3 chamber place conditioning boxes (Med Associates) in which 2 chambers (28×21×21 cm) that differed in color (one black, one white), light level, and texture were separated by a neutral gray chamber (12×21×21). During the initial baseline period, animals were placed in the central chamber and were allowed to freely explore all 3 chambers for a period of 30 minutes. Beam breaks, entries, and time spent in each chamber were automatically recorded using infrared beams. […] During each conditioning session, animals were injected with either morphine or saline and were then immediately confined to one of the two larger chambers for 60 minutes. Rats received 2 conditioning sessions per day for a period of 4 days. Conditioning sessions were separated by a minimum period of 5 hours. Animals were tested for expression of conditioned place preference 1 day after the final conditioning session. Drug side and order were counter-balanced. […] Systemic L-365, 260 was administered 30 minutes before the onset of CPP testing. […]
*Difference scores were calculated by subtracting the time spent in the saline paired chamber from the time spent in the morphine paired chamber during a test session. […]

Sprague-Dawley rats [3] = assay: Expression of morphine CPP after microinjection into anterior or posterior nucleus accumbens (NAcc); assay type: in vivo, rat; settings: CCK-4 10 ng, CCK-8 100 ng (legend 10 ng), raclopride 4 μg; for expression of morphine CPP, microinjected independently into anterior NAcc: L-365, 260 1 ng (p=0.002), SCH-23390 2 μg; for expression of morphine CPP, microinjected independently into anterior NAcc / expression of morphine CPP, microinjected independently into posterior NAcc: lorglumide 15 ng; for expression of morphine CPP, microinjected independently into posterior NAcc: L-365, 260 1 ng (p=0.021), SCH-23390 2 μg (p=0.049); for effect of co-injection on the L-365, 260 effect (attenuation) on morphine CPP, anterior NAcc: co-injected with L-365, 260 into anterior NAcc; for effect of co-injection on the L-365, 260 effect (potentiation) on morphine CPP, posterior NAcc: co-injected with L-365, 260 into posterior NAcc
Protocol: as §1
Animals were anesthetized with a ketamine-xylazine mixture and maintained on isoflurane (0.5 liter/min) as needed for the duration of surgery. Animals were placed in a stereotaxic frame and were implanted with bilateral 26-gauge stainless steel chronic guide cannulae (Plastics One, Roanoke, V A) into either the Anterior (AP, 2.2; ML, ±1.1; DV, −5.5) or Posterior (AP, 1.2; ML, ±1.1; DV, −5.5) NAcc. Cannulae were secured to the skull with dental cement. At the end of the surgical procedure, animals were treated with penicillin and topical antibiotics. A stainless steel dummy cannula (Plastics One) was inserted into each guide cannula and remained in place when the guide cannulae were not in use. Animals were allowed a 1-week recovery period prior to behavioral testing.
Animals were trained in 3 chamber place conditioning boxes (Med Associates) in which 2 chambers (28×21×21 cm) that differed in color (one black, one white), light level, and texture were separated by a neutral gray chamber (12×21×21). During the initial baseline period, animals were placed in the central chamber and were allowed to freely explore all 3 chambers for a period of 30 minutes. Beam breaks, entries, and time spent in each chamber were automatically recorded using infrared beams. […] During each conditioning session, animals were injected with either morphine or saline and were then immediately confined to one of the two larger chambers for 60 minutes. Rats received 2 conditioning sessions per day for a period of 4 days. Conditioning sessions were separated by a minimum period of 5 hours. Animals were tested for expression of conditioned place preference 1 day after the final conditioning session. Drug side and order were counter-balanced. […] Systemic L-365, 260 was administered 30 minutes before the onset of CPP testing.
All injection sites were based on the atlas of Paxinos and Watson (1998). Bilateral injections were made into either the Anterior (AP, 2.2; ML, +1.1; DV, −5.5) or Posterior (AP, 1.2; ML, ±1.1; DV, −5.5) NAcc. Each injection was made using a 1 μl syringe (Hamilton, Reno, Nev.) attached to 20 cm of PE 50 tubing connected to a 33-gauge injection cannula (Plastics One). Microinjections were given at a rate of 0.5 μl per minute using a syringe pump (kd Scientific, Holliston, M A). A volume of 0.5 μl was injected into each side of the NAcc. Injection cannulae extended 2 mm beyond guide cannulae and were left in place for 1 minute following microinjections to minimize the backflow of drug solution. 10 minutes after microinjection was completed, animals were placed into the central CPP chamber and allowed to explore for a period of 30 minutes. Animals received a maximum of four bilateral NAcc microinjections. The number of microinjections each animal received was determined by the persistence of place preference. […] Microinjection drug order was counterbalanced and began a minimum of one day following the test for expression of morphine CPP. Animals were tested for baseline expression of morphine CPP 24 hours following each microinjection to ensure the return to pre-injection baseline. At the conclusion of the experiment, animals were anesthetized with pentobarbital and perfused intracardially through the ascending aorta with 0.1M phosphate buffered saline followed by 10% formalin. […]

humans = settings: literature (Murphy et al., 1993 and others); cited from earlier work

Cc1cccc(NC(=O)N[C@@H]2N=C(c3ccccc3)c3ccccc3N(C)C2=O)c1 [L-365, 260, (3R-(+)-2,3-dihydro-1-methyl-2-oxo-5-phenyl-1H-1,4-benzodiazepin-3-yl)-N′-(3-methylphenyl)urea]
differentiation from saline in animal discrimination studies [1]: cannot be differentiated from saline
ethanol consumption on the two days following shock (Rats; 3 daily systemic doses 1 mg/kg before one-hour ethanol (10%) access, 0.8 mA shock on second day, n=18, vs saline controls): consumed significantly less ethanol than saline controls
ethanol consumption when shock was administered during extinction (Rats; 3 daily systemic doses after ethanol consumption was extinguished, shock on second day, n=12): had no effect
ethanol reinstatement when shock was administered on the first day of re-initiation of ethanol access (Rats; 3 daily systemic doses after extinction, shock on first day, n=12): had no effect
expression of morphine CPP (Sprague-Dawley rats [2]; after acquisition of CPP, tested immediately after injection, p=0.006): attenuates
expression of morphine CPP (Sprague-Dawley rats [2]; tested 24 hours after injection, p=0.0009): attenuates
expression of morphine CPP (Sprague-Dawley rats [2]; tested 72 hours after injection, p=0.004): attenuates
expression of morphine CPP, microinjected independently into anterior NAcc (Sprague-Dawley rats [3]): attenuates
expression of morphine CPP, microinjected independently into posterior NAcc (Sprague-Dawley rats [3]): potentiates
side effects on administration to humans (humans): no significant side effects

CCCCCN(CCCCC)C(=O)C(CCC(=O)O)NC(=O)c1ccc(Cl)c(Cl)c1 (stereo not shown) [lorglumide]
expression of morphine CPP, microinjected independently into anterior NAcc (Sprague-Dawley rats [3]): has no effect
expression of morphine CPP, microinjected independently into anterior NAcc (Sprague-Dawley rats [3]; listed as Lorglumide): had no effect
expression of morphine CPP, microinjected independently into posterior NAcc (Sprague-Dawley rats [3]): has no effect
expression of morphine CPP, microinjected independently into posterior NAcc (Sprague-Dawley rats [3]; listed as Lorglumide): had no effect

CCN1CCC[C@H]1CNC(=O)c1c(O)c(Cl)cc(Cl)c1OC [raclopride]
expression of morphine CPP, microinjected independently into anterior NAcc (Sprague-Dawley rats [3]): has no effect
expression of morphine CPP, microinjected independently into anterior NAcc (Sprague-Dawley rats [3]; listed as Raclopride): had no effect
effect of co-injection on the L-365, 260 effect (attenuation) on morphine CPP, anterior NAcc (Sprague-Dawley rats [3]): reverse the effects of L-365, 260
effect of co-injection on the L-365, 260 effect (potentiation) on morphine CPP, posterior NAcc (Sprague-Dawley rats [3]): reverse the effects of L-365, 260
expression of morphine CPP, microinjected independently into posterior NAcc (Sprague-Dawley rats [3]): has no effect
expression of morphine CPP, microinjected independently into posterior NAcc (Sprague-Dawley rats [3]; listed as Raclopride): had no effect

CCK-4
expression of morphine CPP, microinjected independently into anterior NAcc (Sprague-Dawley rats [3]): neither of which had an effect; also recorded: neither of which has an effect
effect of co-injection on the L-365, 260 effect (attenuation) on morphine CPP, anterior NAcc (Sprague-Dawley rats [3]): reversed
effect of co-injection on the L-365, 260 effect (potentiation) on morphine CPP, posterior NAcc (Sprague-Dawley rats [3]): reversed
expression of morphine CPP, microinjected independently into posterior NAcc (Sprague-Dawley rats [3]): neither of which had an effect; also recorded: neither of which has an effect

CCK-8: cholecystokinin peptide, CCKB receptor ligand precursor, obtained from Research Biochemicals
expression of morphine CPP, microinjected independently into anterior NAcc (Sprague-Dawley rats [3]): neither of which had an effect; also recorded: neither of which has an effect
effect of co-injection on the L-365, 260 effect (attenuation) on morphine CPP, anterior NAcc (Sprague-Dawley rats [3]): reversed
effect of co-injection on the L-365, 260 effect (potentiation) on morphine CPP, posterior NAcc (Sprague-Dawley rats [3]): reversed
expression of morphine CPP, microinjected independently into posterior NAcc (Sprague-Dawley rats [3]): neither of which had an effect; also recorded: neither of which has an effect
